According to US7521478B2, “Total synthesis of myriaporones” (Pharma Mar, S.A.U., priority 2002, dated 2009):

Legend:
Type in all cases: cell-based
[1] = system: DU-145; assay: Inhibition of cell growth by colorimetric SRB assay, DU-145; details: Homo sapiens, DU-145, 48 hours exposure; for CC50: cell killing, read-out: LC50 (the source's name); for IC (total growth inhibition): read-out: TGI
Text: (§1) The finality of these assays is to interrupt the growth of a “in vitro” tumor cell culture by means a continued exhibition of the cells to the sample to be testing.
(§2) Inhibition of Cell Growth by Colorimetric Assay.
(§3) A colorimetric type of assay, using sulforhodamine B (SRB) reaction has been adapted for a quantitative measurement of cell growth and viability (following the technique described by P. A. Skehan, et al., J. Natl. CancerInst. 1990, 82, 1107-1112).
(§4) This form of assay employs 96 well cell culture microplates of 9 mm diameter (T. Mosmann et al., J. of Immuological Methods 1983, 65, 55-63; G. T. Faircloth et al., J. of Tissue and Culture Methods 1988, 11, 201-205). Most of the cell lines are obtained from American Type Culture Collection (ATCC) derived from different human cancer types.
(§5) Cells are maintained in RPMI 1640 10% FBS, supplemented with 0.1 g/L penicillin and 0.1 g/L streptomycin sulfate and then incubated at 37° C., 5% CO2 and 98% humidity. For the experiments, cells were harvested from subconfluent cultures using trypsin and resuspended in fresh medium before plating.
(§6) Cells are seeded in 96 well microtiter plates, at 5×10^3 cells per well in aliquots of 195 μL medium, and they are allowed to attach to the plate surface by growing in drug free medium for 18 hours. Afterward, samples are added in aliquots of 5 μL in a ranging from 10 to 10^−8 μg/mL, dissolved in DMSO/EtOH/PBS (0.5:0.5:99). After 48 hours exposure, the antitumor effect are measured by the SRB methodology: cells are fixed by adding 50 μL of cold 50% (wt/vol) trichloroacetic acid (TCA) and incubated for 60 minutes at 4° C. Plates are washed with deionizer water and dried. One hundred μl of SRB solution (0.4% wt/vol in 1% acetic acid) is added to each microliter well and incubated for 10 minutes at room temperature. Unbound SRB is removed by washing with 1% acetic acid. Plates are air dried and bound stain is solubilized with Tris buffer. Optical densities are read on a automated spectrophotometric plate reader at a single wavelength of 490 nm.
(§7) The values for mean +/−SD of data from triplicate wells are calculated. Some parameters for cellular responses can be calculated: GI=growth inhibition, TGI=total growth inhibition (cytostatic effect) and LC=cell killing (cytotoxic effect).

[2] = system: IGROV-ET; assay: Inhibition of cell growth by colorimetric SRB assay, IGROV-ET; details: Homo sapiens, IGROV-ET, 48 hours exposure; for CC50: cell killing, read-out: LC50 (the source's name); for IC (total growth inhibition): read-out: TGI
Text: as §1, §2, §3, §4, §5, §6, §7

[3] = system: SK-BR-3; assay: Inhibition of cell growth by colorimetric SRB assay, SK-BR-3; details: SK-BR-3, 48 hours exposure; for GI50 / CC50: Homo sapiens; for CC50: cell killing, read-out: LC50 (the source's name); for TGI: total growth inhibition
Text: as §1, §2, §3, §4, §5, §6, §7

[4] = system: SK-MEL-28; assay: Inhibition of cell growth by colorimetric SRB assay, MEL-28; details: Homo sapiens, SK-MEL-28, MEL-28, 48 hours exposure; for CC50: cell killing, read-out: LC50 (the source's name); for IC (total growth inhibition): read-out: TGI
Text: as §1, §2, §3, §4, §5, §6, §7

[5] = system: A-549; assay: Inhibition of cell growth by colorimetric SRB assay, A-549; details: Homo sapiens, A549, A-549, 48 hours exposure; for CC50: cell killing, read-out: LC50 (the source's name); for IC (total growth inhibition): read-out: TGI
Text: as §1, §2, §3, §4, §5, §6, §7

[6] = system: PANC-1; assay: Inhibition of cell growth by colorimetric SRB assay, PANC-1; details: Homo sapiens, PANC-1, 48 hours exposure; for CC50: cell killing, read-out: LC50 (the source's name); for IC (total growth inhibition): read-out: TGI
Text: as §1, §2, §3, §4, §5, §6, §7

[7] = system: LoVo; assay: Inhibition of cell growth by colorimetric SRB assay, LOVO; details: Homo sapiens, LOVO, 48 hours exposure; for LC50: cell killing, read-out: LC50; for IC (total growth inhibition): read-out: TGI
Text: as §1, §2, §3, §4, §5, §6, §7

[8] = system: LoVo-Dox; assay: Inhibition of cell growth by colorimetric SRB assay, LOVO-DOX; details: Homo sapiens, LOVO-DOX, 48 hours exposure; for LC50 (concentration for 50% cell killing): read-out: LC50; for IC (total growth inhibition): read-out: TGI
Text: as §1, §2, §3, §4, §5, §6, §7

[9] = system: HeLa; assay: Inhibition of cell growth by colorimetric SRB assay, HELA; details: Homo sapiens, HELA, 48 hours exposure; for CC50: cell killing, read-out: LC50 (the source's name); for IC (total growth inhibition): read-out: TGI
Text: as §1, §2, §3, §4, §5, §6, §7

[10] = system: HeLa-APL; assay: Inhibition of cell growth by colorimetric SRB assay, HELA-APL; details: Homo sapiens; HELA-APL; 48 hours exposure; cell killing; read-out: LC50 (the source's name)
Text: as §1, §2, §3, §4, §5, §6, §7

Compound | GI50 [1] [µM] | CC50 [1] [µM] | IC (total growth inhibition) [1] [µM] | GI50 [2] [µM] | CC50 [2] [µM] | IC (total growth inhibition) [2] [µM] | GI50 [3] [µM] | CC50 [3] [µM] | TGI [3] [Molar] | GI50 [4] [µM] | CC50 [4] [µM] | IC (total growth inhibition) [4] [µM] | GI50 [5] [µM] | CC50 [5] [µM] | IC (total growth inhibition) [5] [µM] | GI50 [6] [µM] | CC50 [6] [µM] | IC (total growth inhibition) [6] [µM] | GI50 [7] [µM] | LC50 [7] [µM] | also measured
C/C=C\[C@H](C)[C@H]1OC1(C)[C@@H](O[Si](C)(C)C(C)(C)C)[C@@H](CO[Si](C)(C)C(C)(C)C)C(=O)[C@@H](CO[Si](C)(C)C(C)(C)C)[C@H](CC(=O)CC)O[Si](C)(C)C(C)(C)C (some centres unmarked) [Compound 30a] | 12.1 | 12.1 | 12.1 | 8.27 | 12.1 | 12.1 | 8.56 | 12.1 | 1.21E−05 | 12.1 | 12.1 | 12.1 | 12.1 | 12.1 | 12.1 | 12.1 | 12.1 | 12.1 | 6.37 | 12.1 | IC (total growth inhibition) [7]: 12.1 µM; GI50 [8]: 12.1 µM; LC50 (concentration for 50% cell killing) [8]: 12.1 µM; IC (total growth inhibition) [8]: 12.1 µM; GI50 [9]: 12.1 µM; CC50 [9]: 12.1 µM; IC (total growth inhibition) [9]: 12.1 µM; CC50 [10]: 12.1 µM
C/C=C\[C@H](C)[C@H]1OC1(C)[C@@H](O[Si](C)(C)C(C)(C)C)[C@@H](CO[Si](C)(C)C(C)(C)C)C(=O)[C@@H](CO[Si](C)(C)C(C)(C)C)[C@@H](CC(=O)CC)O[Si](C)(C)C(C)(C)C (some centres unmarked) [Compound 30b] | 12.1 | 12.1 | 12.1 | 8.27 | 12.1 | 12.1 | 12.1 | 12.1 | 1.21E−05 | 12.1 | 12.1 | 12.1 | 12.1 | 12.1 | 12.1 | 12.1 | 12.1 | 12.1 | 6.88 | 12.1 | IC (total growth inhibition) [7]: 12.1 µM; GI50 [8]: 12.1 µM; LC50 (concentration for 50% cell killing) [8]: 12.1 µM; IC (total growth inhibition) [8]: 12.1 µM; GI50 [9]: 12.1 µM; CC50 [9]: 12.1 µM; IC (total growth inhibition) [9]: 12.1 µM; CC50 [10]: 12.1 µM
